# Reference: patent US20210038730A1, “PEPTIDE NANOFIBERS” (UNIVERSITY OF PORTSMOUTH HIGHER EDUCATION CORPORATION, priority 2018, published 2021)
# Legend:
# GnRH-R = target: T1, GnRH-R (Homo sapiens, UniProt P30968); assay: Forskolin-induced intracellular cAMP ELISA; format: cell-based; details: forskolin 5 μM, 15 minutes
# T1 construct: The intracellular cAMP was quantified using the Direct cAMP ELISA kit; endogenous in cells
# T1 sequence (P30968 1-328): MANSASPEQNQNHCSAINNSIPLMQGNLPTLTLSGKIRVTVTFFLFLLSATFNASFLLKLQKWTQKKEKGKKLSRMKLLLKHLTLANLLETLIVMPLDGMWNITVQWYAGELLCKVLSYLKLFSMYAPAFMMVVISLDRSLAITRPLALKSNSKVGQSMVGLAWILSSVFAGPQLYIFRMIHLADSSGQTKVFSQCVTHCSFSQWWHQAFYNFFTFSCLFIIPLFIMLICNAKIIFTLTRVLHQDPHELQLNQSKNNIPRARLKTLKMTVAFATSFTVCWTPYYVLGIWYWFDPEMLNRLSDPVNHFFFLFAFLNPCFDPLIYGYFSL
# [1] = Critical aggregation concentration, pyrene assay; format: physicochemical; details: PBS pH 7.4, 37° C., 24 hours
# Protocol: Critical aggregation concentration (CAC) of TPGnRH was determined using pyrene ^1-4 and thioflavin T ^5, 6. The peptide solutions (3.5-700 μM) were prepared in phosphate-buffered saline (PBS, 0.01 M, pH 7.4) either by a dilution of a stock solution at 700 μM or solutions prepared at the required concentration. In the pyrene assay, pyrene was dissolved in methanol at 250 μM, dispersed into a black 96-well plate, and methanol was evaporated overnight. TPGnRH solutions were added to pyrene and incubated at 37° C. for 24 hours under stirring. Fluorescence spectra was recorded λex at 334 nm. For the thioflavin T assay, peptide solutions were added to freshly prepared thioflavin Tat 50 μM. All peptide samples were incubated during 5 minutes at room temperature and fluorescence was measured at λex at 450 nm and λem at 482 nm.
# [2] = Enzymatic stability in rat liver homogenates; details: 50% (v/v) rat liver homogenates
# Protocol: (§1) Fresh blood, obtained from adult male Wistar rats, was collected in sterile the 170 I.U. lithium heparin-coated tubes (Vacutainer, BD Bioscience, UK). Blood was centrifuged immediately at 2,000 g for 15 minutes (4° C.) and supernatant was collected and diluted to 50% (v/v) with PBS. Livers and brains were obtained from adult male Wistar rats, and the tissues were blotted to dryness, weighed, sliced into pieces, and homogenised with ice-cold PBS (in 2 mL of buffer g^−1 of tissue) using the glass homogeniser. Then, tissue homogenates were centrifuged at 4,300 g for 1 hour (4° C.) and the supernatants collected. Glioblastoma cell homogenates were prepared using U-87 MG cells. Cells were cultured in Eagle's Minimum Essential Medium (EMEM) supplemented with 10% (v/v) heat-inactivated fetal bovine serum (FBS), 1% (v/v) of non-essential amino acids (NEAA) and 1 mM of sodium pyruvate in T75 flasks with a surface area of 75 cm^2 and maintained in a humidified atmosphere of 5% CO2 at 37° C. Breast cancer cell homogenates were prepared using MDA-MB-231 cells. Cells were cultured in Dulbecco's Modified Eagle Medium (DMEM) supplemented with high levels of glucose (4.5 g/L), 10% (v/v) heat-inactivated fetal bovine serum (FBS), 1% (v/v) of non-essential amino acids (NEAA) and penicillin and streptomycin (500 units/mL) in T75 flasks with a surface area of 75 cm^2 and maintained in a humidified atmosphere of 5% CO2 at 37° C. Media was changed for both cell lines every 3 to 4 days. After reaching confluence, cells were washed twice with Hank's Balanced Salt Solution (HBSS) and incubated with ˜2 mL of TrypLE Enzyme at 37° C. for ˜3 minutes. Then, complete media were added, and cells were centrifuged at 1,000 rpm for 5 minutes in C-28A centrifuge (Boeco, Germany). U-87 MG or MDA-MB-231 cells (˜10×10^6 cells mL^−1) were re-suspended in ice-cold PBS, and homogenised with a 2×5 second pulses with the probe sonicator (UP200S Ultrasonic processor, SciMed, 200 watts, amplitude of 60%). Cell debris were removed by centrifugation at 2,000 rpm for 5 minutes (Jouan B4i, Thermo Scientific, Paisley, UK). Supernatant was collected and stored at −80° C. Total protein concentration in the homogenates was determined using the Bradford assay with bovine serum albumin as a standard. Diluted plasma, tissue or cell homogenates were pre-warmed during ˜30 minutes at 37° C. Peptide stock solutions (Glu-GnRH, goserelin acetate and TPGnRH, 5 mM in PBS, 500 μL) were prepared and added to the homogenate solutions (120 μL). PAX-loaded nanofibers prepared at a ratio of 1:7.36 [PAX:TPGnRH consisting of 3 μmol (2.56 mg mL^−1) of PAX, 22.02 μmol (31.46 mg mL^−1) of TPGnRH], as previously described, and further diluted in PBS to achieve a concentration of 5 mM of TPGnRH and 500 nM of PAX (120 μL) were added to the homogenates. At various time intervals, an aliquot was collected (80 μL) and added to ice-cold ACN (80 μL) to quench the enzymatic activity. Samples were stored at −80° C. for at least 3 hours to maximise protein precipitation. Samples were vortexed for 15 minutes, centrifuged for 15 minutes at 12,000 rpm, and the supernatants were collected and analysed by RP-HPLC.
# [3] = Enzymatic stability in rat brain homogenates; details: 50% (v/v) rat brain homogenates
# Protocol: Fresh blood, obtained from adult male Wistar rats, was collected in sterile the 170 I.U. lithium heparin-coated tubes (Vacutainer, BD Bioscience, UK). Blood was centrifuged immediately at 2,000 g for 15 minutes (4° C.) and supernatant was collected and diluted to 50% (v/v) with PBS. Livers and brains were obtained from adult male Wistar rats, and the tissues were blotted to dryness, weighed, sliced into pieces, and homogenised with ice-cold PBS (in 2 mL of buffer g^−1 of tissue) using the glass homogeniser. Then, tissue homogenates were centrifuged at 4,300 g for 1 hour (4° C.) and the supernatants collected. Glioblastoma cell homogenates were prepared using U-87 MG cells. Cells were cultured in Eagle's Minimum Essential Medium (EMEM) supplemented with 10% (v/v) heat-inactivated fetal bovine serum (FBS), 1% (v/v) of non-essential amino acids (NEAA) and 1 mM of sodium pyruvate in T75 flasks with a surface area of 75 cm^2 and maintained in a humidified atmosphere of 5% CO2 at 37° C. Breast cancer cell homogenates were prepared using MDA-MB-231 cells. Cells were cultured in Dulbecco's Modified Eagle Medium (DMEM) supplemented with high levels of glucose (4.5 g/L), 10% (v/v) heat-inactivated fetal bovine serum (FBS), 1% (v/v) of non-essential amino acids (NEAA) and penicillin and streptomycin (500 units/mL) in T75 flasks with a surface area of 75 cm^2 and maintained in a humidified atmosphere of 5% CO2 at 37° C. Media was changed for both cell lines every 3 to 4 days. After reaching confluence, cells were washed twice with Hank's Balanced Salt Solution (HBSS) and incubated with ˜2 mL of TrypLE Enzyme at 37° C. for ˜3 minutes. Then, complete media were added, and cells were centrifuged at 1,000 rpm for 5 minutes in C-28A centrifuge (Boeco, Germany). U-87 MG or MDA-MB-231 cells (˜10×10^6 cells mL^−1) were re-suspended in ice-cold PBS, and homogenised with a 2×5 second pulses with the probe sonicator (UP200S Ultrasonic processor, SciMed, 200 watts, amplitude of 60%). Cell debris were removed by centrifugation at 2,000 rpm for 5 minutes (Jouan B4i, Thermo Scientific, Paisley, UK). Supernatant was collected and stored at −80° C. Total protein concentration in the homogenates was determined using the Bradford assay with bovine serum albumin as a standard. Diluted plasma, tissue or cell homogenates were pre-warmed during ˜30 minutes at 37° C. Peptide stock solutions (Glu-GnRH, goserelin acetate and TPGnRH, 5 mM in PBS, 500 μL) were prepared and added to the homogenate solutions (120 μL). […] Samples were vortexed for 15 minutes, centrifuged for 15 minutes at 12,000 rpm, and the supernatants were collected and analysed by RP-HPLC.
# in vitro = details: human, tissue homogenate
# Protocol: as §1
# U-87 MG cells = assay: Cell proliferation (BrdU ELISA); format: cell-based, human; details: >7 μM, every two days, 6 days of treatment
# Protocol: In vitro antitumour effects of TPGnRH and PAX-loaded TPGnRH were assessed in U-87 MG cells, UP-007, UP-029, SEBTA-023 MDA-MD-231 [triple negative (ER^−, PR—, HER2^−) breast cancer cell line] and SK-OV-3 (human ovarian carcinoma with a low expression of GnRH-R). Cells were seeded at 1,400 cells/cm^2 and allowed to attach and grow for 3 days. In experiments with TPGnRH nanofibers alone (to obtain the IC50 value in each cell line), cells were treated with medium supplemented with the peptide solutions in PBS (0.7 to 700 μM) to achieve a final concentration of 0.07 to 70 μM per well. Media was replaced by fresh media every two days for 6 days. […] On day 4, PAX-loaded TPGnRH nanofibers containing 1 nM of PAX and 7 or 35 μM of TPGnRH were added and the effect on cell viability, proliferation, cell cycle, and apoptosis was assessed on day 6. Only for the MDA-MB-231 cells, on day 4, PAX-loaded TPGnRH nanofibers containing 10 nM of PAX and 7 or 35 μM of TPGnRH were added and the effect on cell viability, proliferation, cell cycle, and apoptosis was also assessed on day 6. […] Cell metabolic activity was measured using MTT assay. […] Afterwards, dimethyl sulfoxide (100 μL) was added to the wells to dissolve the formazan crystals and the absorbance was measured at 570 and 690 nm. […] Cells were incubated with BrdU for 24 hours before the end of the pre-determined time-points. […]
compound,measurement,setting,value
"CCCCCCCCCCCCCCCC(=O)Oc1ccc(C[C@H](NC(=O)[C@H](CO)NC(=O)[C@H](Cc2c[nH]c3ccccc23)NC(=O)[C@H](Cc2c[nH]cn2)NC(=O)[C@@H](N)CCC(=O)O)C(=O)NCC(=O)N[C@@H](CC(C)C)C(=O)N[C@@H](CCCNC(=N)N)C(=O)N2CCC[C@H]2C(=O)NCC(N)=O)cc1 [TPGnRH, Tyrosine (O-Palmitoyl)-Glu-GnRH]",effect on forskolin-induced cAMP intracellular accumulation,GnRH-R,counteracted the forskolin-induced cAMP intracellular accumulation
same,CAC (self-assembly into aggregates),[1],7 µM
same,Plateau,[2]; analyte in brackets of label,359.3 µg/mL
same,kα,[2]; analyte in brackets of label,0.1678 min⁻¹
same,kβ,[2]; analyte in brackets of label,0.005339 min⁻¹
same,"remaining at 8 h, 4.03 mM","[2]; male, Wistar, rat",~50%
same,k,[3]; analyte in brackets of label,0.1781 min⁻¹
same,"remaining at 8 h, 4.03 mM","[3]; male, Wistar, rat",> 80%
same,half-life at 4.03 mM,in vitro,51.9 ± 8.73 h
same,effect on cell proliferation,U-87 MG cells,significant reduction in cell proliferation
